Blank lines part the entries; values can stand above or below the compound they belong to.
Tests used:
Neutrophil elastase [1] = molecular target: T1, Neutrophil elastase (Homo sapiens, UniProt P08246); test: Compound was tested for inhibition of human leukocyte Elastase at 16 uM concentration from human polymorphonuclear leukocytes
T1 sequence (P08246 whole entry): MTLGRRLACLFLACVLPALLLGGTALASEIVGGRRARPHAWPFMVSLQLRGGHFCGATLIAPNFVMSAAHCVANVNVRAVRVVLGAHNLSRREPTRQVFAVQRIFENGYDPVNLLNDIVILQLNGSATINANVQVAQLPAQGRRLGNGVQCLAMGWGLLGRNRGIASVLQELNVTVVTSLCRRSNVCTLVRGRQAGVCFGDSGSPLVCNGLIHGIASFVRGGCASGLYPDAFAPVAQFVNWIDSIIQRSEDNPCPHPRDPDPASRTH

Neutrophil elastase [2] = molecular target: T1, Neutrophil elastase; test: Compound was tested for inhibition of human leukocyte Elastase at 64 uM concentration from human polymorphonuclear leukocytes
[3] = molecular target: T2, Cathepsin G (Homo sapiens) (UniProt P08311); test: Compound was tested for inhibitory activity against human Cathepsin G; details: concentration not given here
T2 sequence (whole entry): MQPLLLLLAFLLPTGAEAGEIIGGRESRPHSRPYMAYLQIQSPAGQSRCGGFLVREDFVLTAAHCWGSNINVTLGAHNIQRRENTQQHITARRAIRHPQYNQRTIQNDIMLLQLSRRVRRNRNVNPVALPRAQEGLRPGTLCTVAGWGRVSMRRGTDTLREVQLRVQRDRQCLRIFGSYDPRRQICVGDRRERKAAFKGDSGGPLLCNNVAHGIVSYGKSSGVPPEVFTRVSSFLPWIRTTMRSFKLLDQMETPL

[4] = molecular target: Chymotrypsinogen A (Bos taurus) (UniProt P00766); test: Compound was tested for inhibitory activity against […] alpha-chymotrypsin; details: concentration not given here
Neutrophil elastase [5] = molecular target: T1, Neutrophil elastase; test: Compound was tested for inhibition of human leukocyte Elastase from human polymorphonuclear leukocytes; not inhibitory at the limit of solubility
Neutrophil elastase [6] = molecular target: T1, Neutrophil elastase; test: Compound was tested for inhibition of human leukocyte Elastase at 32 uM concentration from human polymorphonuclear leukocytes
Neutrophil elastase [7] = molecular target: T1, Neutrophil elastase; test: Compound was tested for inhibition of human leukocyte Elastase at 51 uM concentration from human polymorphonuclear leukocytes
Neutrophil elastase [8] = molecular target: T1, Neutrophil elastase; test: Compound was tested for inhibition of human leukocyte Elastase at 13 uM concentration from human polymorphonuclear leukocytes
Neutrophil elastase [9] = molecular target: T1, Neutrophil elastase; test: Compound was tested for inhibition of human leukocyte Elastase at 23 uM concentration from human polymorphonuclear leukocytes
Neutrophil elastase [10] = molecular target: T1, Neutrophil elastase; test: Compound was tested for inhibition of human leukocyte Elastase at 15 uM concentration from human polymorphonuclear leukocytes

Compound: Oc1sc(Nc2ccccc2)nc2c3ccccc3nc1-2
Ki (Neutrophil elastase [2]): 43 µM
inhibition [3]: 11.1%
inhibition [4]: 13.3%

Compound: CCNc1nc2c3ccccc3nc-2c(O)s1
Ki (Neutrophil elastase [5]): No inhibition

Compound: Oc1sc(Nc2ccccc2F)nc2c3ccccc3nc1-2
Ki (Neutrophil elastase [6]): ≥ 88 µM

Compound: CNc1nc2c3ccccc3nc-2c(O)s1
Ki (Neutrophil elastase [5]): No inhibition

Compound: Oc1sc(Nc2cccc(F)c2)nc2c3ccccc3nc1-2
Ki (Neutrophil elastase [1]): ≥ 72 µM

Compound: Oc1sc(Nc2cccc(C(F)(F)F)c2)nc2c3ccccc3nc1-2
inhibition [3]: 5.3%
inhibition [4]: 34.2%
Ki (Neutrophil elastase [8]): ≥ 30 µM

Compound: CCCNc1nc2c3ccccc3nc-2c(O)s1
Ki (Neutrophil elastase [5]): No inhibition

Results, then the compound that gave them:

Ki (Neutrophil elastase [1]): ≥ 78 µM
Compound: Cc1ccc(Nc2nc3c4ccccc4nc-3c(O)s2)cc1

Ki (Neutrophil elastase [7]): ≥ 104 µM
Compound: Oc1sc(Nc2ccc(F)cc2)nc2c3ccccc3nc1-2

Ki (Neutrophil elastase [8]): ≥ 30 µM
Compound: Oc1sc(Nc2ccc(Br)cc2)nc2c3ccccc3nc1-2

Ki (Neutrophil elastase [9]): 29 µM
Compound: Oc1sc(Nc2ccc(Cl)cc2)nc2c3ccccc3nc1-2

Ki (Neutrophil elastase [10]): ≥ 45 µM
Compound: O=[N+]([O-])c1ccc(Nc2nc3c4ccccc4nc-3c(O)s2)cc1

From ChEMBL document CHEMBL1127997, “Synthesis of new thiazinoindole derivatives and their evaluation as inhibitors of human leukocyte elastase and other related serine proteases” (Bioorg Med Chem Lett, 1994)
